Values quoted from earlier work, collected in US11577212B2, “Stimuli-responsive micro-reservoirs for release of encapsulants” (priority 2018, dated 2023).

**Q.** Which solubility in water does the source give for OCC(O)CO [glycerin] here?
**A.** The solubility in water was “Miscible”.

**Q.** Which solubility in water does the source give for CN(C)P(N(C)C)N(C)C [Hexamethylphosphorous triamide (HMPT), Hexamethylphosphorous triamide] here?
**A.** The solubility in water was “Miscible”.

**Q.** Which solubility in water does the source give for CCO [ethanol] here?
**A.** The solubility in water was “Miscible”.

**Q.** For COCCOC [1,2-dimethoxy-ethane (glyme, DME), 1,2-dimethoxy-ethane], which solubility in water is on record?
**A.** Its solubility in water is “Miscible”.

**Q.** For Clc1ccccc1 [chlorobenzene], which solubility in water is on record?
**A.** Its solubility in water is 0.05 g/100 g.

**Q.** With CCCCCC [hexane] as the molecule, how does the solubility in water read?
**A.** The solubility in water was 0.0014 g/100 g.

**Q.** Which solubility in water does the source give for C1CCCCC1 [cyclohexane] here?
**A.** The solubility in water was 0.0055 g/100 g.

**Q.** With CCOC(C)=O [ethyl acetate] as the molecule, how does the solubility in water read?
**A.** The solubility in water was 8.7 g/100 g.

**Q.** With COCCOCCOC [diethylene glycol dimethyl ether] as the molecule, how does the solubility in water read?
**A.** The solubility in water was “Miscible”.

**Q.** For CCCCC [pentane], which solubility in water is on record?
**A.** The solubility in water was 0.04 g/100 g.
